Results: PMC7255104, “Receptor Characterization and Functional Activity of Pyrokinins on the Hindgut in the Adult Mosquito, Aedes aegypti” (Frontiers in Physiology, 2020)
Where a SMILES comes first, the peptide text is derived from it. [ ]: non-standard residue; d: D form. pGlu = O=C1CC[C@@H](C(=O)O)N1

Tests used:
[1] = test system: isolated recta of A. aegypti; test: Rectal contraction assay (impedance converter); set-up: species or system Aedes aegypti; conditions: 1 μM, 2-min interval, mean of 6-18 preparations
Protocol: Hindgut contraction assays were conducted on isolated […] of female A. aegypti. […] The isolated tissue was secured with minutien pins within a Sylgard-lined petri-dish. Given its high sequence similarity to endogenous A. aegypti PK2 peptides (Supplementary Table S1), we used the R. prolixus PK2b peptide ([Paluzzi and O'Donnell, 2012]), henceforth referred to as RhoprPK2b, for motility bioassays. Commercially synthesized peptides (Genscript, Piscataway, NJ, United States), […] ([…]) and RhoprPK2[…]), were used to examine myomodulatory activity. […] To assess whether PK1 peptides plays a role in regulating rectal motility, contractions were monitored in saline to obtain baseline contraction rates and subsequently following […] or 5-HT treatments, using probes connected to an impedance converter (UFI model 2991, Morro Bay, CA, United States) connected to a Powerlab 4/30 and laptop computer running LabChart […].0 software (AD Instruments, Colorado Springs, CO, United States). […] Probes were positioned on either side of the rectum by observation with a dissecting microscope (Olympus SZ61), and contractile responses were recorded on LabChart […].0 software (AD Instruments, Colorado Springs, CO, United States). Contractions were monitored for two minutes prior to, and after the addition of either […] or 5-HT. […]

[2] = test system: isolated ilea of female A. aegypti; test: Ileal motility assay (video recordings); set-up: species or system Aedes aegypti; conditions: Figure 6, 1 μM, 5-HT added together with 1 μM RhoprPK2b
Protocol: Hindgut contraction assays were conducted on isolated […] of female A. aegypti. […] The isolated tissue was secured with minutien pins within a Sylgard-lined petri-dish. Given its high sequence similarity to endogenous A. aegypti PK2 peptides (Supplementary Table S1), we used the R. prolixus PK2b peptide ([Paluzzi and O'Donnell, 2012]), henceforth referred to as RhoprPK2b, for motility bioassays. Commercially synthesized peptides (Genscript, Piscataway, NJ, United States), […] ([…]) and RhoprPK2[…]), were used to examine myomodulatory activity. Serotonin (5-hydroxytryptamine, 5-HT; Sigma-Aldrich, Oakville, ON, Canada), previously shown to stimulate A. aegypti hindgut contractions ([Messer and Brown, 1995]), was used as a stimulatory control. Given the inhibitory properties of myoinhibitory peptides (having the consensus W(X6)W-NH2 carboxyl terminus) on insect hindgut motility ([Lange et al., 2012]), RhoprMIP-7 ([…]; Genscript, Piscataway, NJ, United States; [Paluzzi et al., 2015]) was used as an inhibitory control. […] Unlike the rectum, the mosquito ileum produces weaker contractions that we were unable to measure using an impedance converter as described above. […] The dissected gut was pinned in the midgut and rectum to allow the ileum to freely contract in saline and following treatments. Contractions were recorded for 2 min in saline that was used for baseline activity measurements, followed by three subsequent 2-min recordings, including: […] The RhoprPK2b was added along with the stimulatory or inhibitory compound (5-HT or RhoprMIP-7, respectively), to maintain its 1 μM concentration in the bath. […] To account for any potential changes in tissue contractile activity upon adding solutions to the bath, each of these variables were measured relative to baseline saline recordings of the same preparation as a ratio of change, where a value above or below one indicates an increase or a decrease, (respectively), in the rate, duration or length between each contraction in response to the treatment.

[3] = test system: A. aegypti PK1-R; test: Heterologous functional receptor assay (aequorin bioluminescence), PK1-R; assay type: cell-based, Aedes aegypti; conditions: CHO-K1 cells expressing PK1-R; luminescent response
Source text: The complete open reading frame was amplified based on the partial ([Nene et al., 2007]) and complete sequences ([Choi et al., 2013]) reported earlier for the A. aegypti PK1-R (Genbank accession: EAT35008.1) and PK2-R (Genbank accession: KC155994.1). Forward 5′-[…]-3′ (PK1-R) or 5′-[…]-3′ (PK2-R) and reverse 5′-[…]-3′ (PK1-R) or 5′-[…]-3′ (PK2-R) primers were designed over the start and stop codons (underlined), respectively, and used to amplify the complete coding sequence using Q5 High-Fidelity DNA polymerase following manufacturer recommendations (New England Biolabs, Whitby, ON). […] The resulting products were cloned into pGEM-T Easy sequencing vector, and miniprep samples were sequenced to verify base accuracy. […]
Chinese hamster ovary cells (CHO-K1) described previously ([Paluzzi et al., 2012]; [Gondalia et al., 2016]; [Wahedi and Paluzzi, 2018]) were grown in Dulbecco’s modified eagles medium: nutrient F12 (DMEM:F12) media containing 10% heat-inactivated fetal bovine serum (FBS; Wisent, St. Bruno, QC, Canada), 200 μg/mL geneticin, and antimycotic-antibiotic mixture as described previously ([Wahedi and Paluzzi, 2018]). […] Various concentrations of synthesized PK peptides and other peptides (purity > 90%; Genscript, Piscataway, NJ, United States) were prepared in BSA media and loaded in quadruplicate into white 96-well luminescence plates (Greiner Bio-One, Germany). […]

[4] = molecular target: T1, A. aegypti PK2-R (Aedes aegypti, UniProt V9P4J1); test: Heterologous functional receptor assay (aequorin bioluminescence), PK2-R; assay type: cell-based; conditions: CHO-K1 cells expressing PK2-R
T1 sequence (V9P4J1 1-638): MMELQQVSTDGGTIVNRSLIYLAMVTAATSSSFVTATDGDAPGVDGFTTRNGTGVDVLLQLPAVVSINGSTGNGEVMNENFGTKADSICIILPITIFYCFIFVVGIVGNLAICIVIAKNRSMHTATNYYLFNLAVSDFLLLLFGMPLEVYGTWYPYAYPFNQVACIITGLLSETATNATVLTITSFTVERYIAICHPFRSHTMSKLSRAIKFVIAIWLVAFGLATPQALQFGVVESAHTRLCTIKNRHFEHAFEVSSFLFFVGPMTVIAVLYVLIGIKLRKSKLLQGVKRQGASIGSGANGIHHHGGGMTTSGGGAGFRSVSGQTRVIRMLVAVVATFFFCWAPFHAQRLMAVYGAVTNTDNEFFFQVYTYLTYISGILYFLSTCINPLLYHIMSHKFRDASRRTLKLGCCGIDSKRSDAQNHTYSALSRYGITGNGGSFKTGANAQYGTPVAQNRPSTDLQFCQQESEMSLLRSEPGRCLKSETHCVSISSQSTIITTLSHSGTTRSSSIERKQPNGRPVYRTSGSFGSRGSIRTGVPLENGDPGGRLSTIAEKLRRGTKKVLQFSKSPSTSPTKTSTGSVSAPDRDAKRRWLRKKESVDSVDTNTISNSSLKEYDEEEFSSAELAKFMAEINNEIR
Source text: The complete open reading frame was amplified based on the partial ([Nene et al., 2007]) and complete sequences ([Choi et al., 2013]) reported earlier for the A. aegypti PK1-R (Genbank accession: EAT35008.1) and PK2-R (Genbank accession: KC155994.1). Forward 5′-[…]-3′ (PK1-R) or 5′-[…]-3′ (PK2-R) and reverse 5′-[…]-3′ (PK1-R) or 5′-[…]-3′ (PK2-R) primers were designed over the start and stop codons (underlined), respectively, and used to amplify the complete coding sequence using Q5 High-Fidelity DNA polymerase following manufacturer recommendations (New England Biolabs, Whitby, ON). […] The resulting products were cloned into pGEM-T Easy sequencing vector, and miniprep samples were sequenced to verify base accuracy. The receptor constructs were excised using standard restriction enzyme digestion and subcloned into the mammalian expression vector, pcDNA 3.1^+ (Life Technologies, Burlington, ON, Canada). Transfection quality plasmid DNA was purified from an overnight bacterial culture using the PureLink MidiPrep Kit (Invitrogen, Burlington, ON, Canada) following manufacturer guidelines.
Chinese hamster ovary cells (CHO-K1) described previously ([Paluzzi et al., 2012]; [Gondalia et al., 2016]; [Wahedi and Paluzzi, 2018]) were grown in Dulbecco’s modified eagles medium: nutrient F12 (DMEM:F12) media containing 10% heat-inactivated fetal bovine serum (FBS; Wisent, St. Bruno, QC, Canada), 200 μg/mL geneticin, and antimycotic-antibiotic mixture as described previously ([Wahedi and Paluzzi, 2018]). […] Various concentrations of synthesized PK peptides and other peptides (purity > 90%; Genscript, Piscataway, NJ, United States) were prepared in BSA media and loaded in quadruplicate into white 96-well luminescence plates (Greiner Bio-One, Germany).
Luminescence responses to A. aegypti CAPA-1 (GPTVGLFAFPRV-NH2), CAPA-2 (pQGLVPFPRV-NH2) and CAPA-PK1 (AGNSGANSGMWFGPRL-NH2) peptides, along with the R. prolixus PK2 orthologs, PK2a (NTVNFSPRL-NH2), and PK2b (SPPFAPRL-NH2) were examined. A list of peptides used in this study and sequence comparison to native A. aegypti pyrokinin peptides is found in Supplementary Table S1. Cells prepared for the functional assay were loaded into each well of the plate using an automated injector unit and luminescent response was measured with a Synergy 2 Multi-Mode Microplate Reader (BioTek, Winooski, VT, United States). Negative controls were carried out using BSA media alone whereas 50 μM ATP, which activates endogenously expressed purinoceptors ([Iredale and Hill, 1993]; [Michel et al., 1998]), was used as a positive control. Luminescence responses were normalized to ATP responses and analyzed in GraphPad Prism 7.02 (GraphPad Software, San Diego, CA, United States). EC50 values were determined using dose-response curves from multiple biological replicates.

[5] = test system: anti-RhoprCAPA-2 primary antiserum (antigen EGGFISFPRV-NH2); test: Competitive ELISA for antibody cross-reactivity; assay type: binding, rabbit; conditions: antiserum 1:1000; absorbance at 450 nm; mean ± SEM, n = 4; read-out: IC50, competitive ELISA against 1 nM biotinylated-DromeCAPA
Protocol: In brief, 96-well plates were coated with anti-RhoprCAPA-2 primary antiserum diluted to 1:1000 in carbonate buffer (15 mM Na2CO3-H2O and 35 mM NaHCO3 in water; pH 9.4) and incubated overnight at 4°C. Plate contents were discarded, blotted, and rinsed three times with wash buffer (350 mM NaCl, 2.7 mM KCl, 1.5 mM KH2PO4, 5.15 mM Na2HPO4-H2O, and 0.05% Tween-20 (v/v) in water). Wells were then incubated for 1.5 h on a rocker with block buffer [0.5% skim milk powder (w/v) and 0.5% BSA (w/v) in PBS]. The block solution was discarded, and standard solutions were added (100 μL/well). Standards consisted of AedaeCAPA-1 and AedaeCAPA-2 diluted in block buffer to achieve concentrations ranging from 250 pM to 250 nM, or AedaeCAPA-PK1 and RhoprPK2b from 4.8 nM to 75 uM. After a 1.5 h incubation on a rocker, 1 nM biotinylated-DromeCAPA diluted in block buffer ([MacMillan et al., 2018]) was added (100 μL/well) to compete with the unlabeled peptide standards for antibody binding. Following overnight incubation at 4°C, the wells were washed four times with wash buffer, and incubated at 4°C for 1.5 h with Avidin-HRP (1:2000; Bio-Rad, Mississauga, ON, Canada). […] Reactions were stopped with 100 μL/well 2N HCl and absorbance at 450 nm was measured using a Synergy 2 Multi-Mode Microplate Reader (BioTek, Winooski, VT, United States).

SMILES | fold change in contraction rate of female recta relative to baseline in saline ([1]; female recta) | fold change in contraction rate of male recta relative to baseline in saline ([1]; male recta) | ileal contraction frequency relative to baseline ([2]; 2-min recordings, mean of 15 preparations) | duration of each ileal contraction relative to baseline ([2]; 15 preparations) | length of time between ileal contractions relative to baseline ([2]; 15 preparations) | activation of PK1-R (in words) [3] | activation of PK2-R (in words) ([4]; luminescent response) | activation of PK2-R relative to the highly potent pyrokinins ([4]; very high concentrations) | IC50 [5]
NCCc1c[nH]c2ccc(O)cc12 [5-HT, 5-hydroxytryptamine] | 1.97 fold | 2.48 fold | 2.88 fold | effectively reduced | effectively reduced | – | – | – | –
CC(C)C[C@H](NC(=O)CNC(=O)[C@@H]1CCC(=O)N1)C(=O)N[C@H](C(=O)N1CCC[C@H]1C(=O)N[C@@H](Cc1ccccc1)C(=O)N1CCC[C@H]1C(=O)N[C@@H](CCCNC(=N)N)C(=O)N[C@H](C(N)=O)C(C)C)C(C)C [AedaeCAPA-2] ([pGlu]GLVPFPRV-NH2) | – | – | – | – | – | effective in activating PK1-R at high concentrations | only active on PK2-R at very high concentrations | ≤ 25% | 16.9 nM
